Measurements published in patent US8022207B2, “Compound having affinity to amyloid” (Nihon Medi-Physics Co., Ltd., priority 2006, dated 2011).
Read-outs that look alike come from different tables or passages of the source.

Assays:
[1] = [^125I]-labeled compounds; cited from earlier work
[2] = International Publication WO03/106439 pamphlet; cited from earlier work
[3] = [^125I]-labeled, normal mice, brain; cited from earlier work
[4] = system: Salmonella typhimurium TA98 and TA100; assay: Reverse mutation test (Ames test), overall judgment; type: cell-based; settings: TA98 and TA100, regardless of addition of S9mix
Protocol: (§1) In order to examine mutagenicity of Compounds 1, 2 and 4, reverse mutation test using Salmonella typhimurium TA98 and TA100 (hereinafter referred to as Ames test) was conducted.
(§2) The test was conducted without addition of S9mix and with addition of S9mix. Dimethylsulfoxide was used as a negative control. A positive control was 2-(2-furyl)-3-(5-nitro-2-furyl)acrylamide in case S9mix was not added, and 2-aminoanthracene in case S9 mix was added.
(§3) The amount of each sample to be added to the test plate was 7 dosages (geometric ratio 4) with the maximum dose being 5000 μg/plate. After a sample to be examined and a strain (TA98 or TA100), or a sample to be examined, S9mix and the strain were mixed together, the mixture was multilayered using soft agar on a medium of a test plate, and then incubated at 37° C. for 48 hours.
(§4) In order to examine mutagenicity of Compound 8, reverse mutation test using Salmonella typhimurium TA98 and TA100 (hereinafter referred to as Ames test) was conducted.
(§5) The test was conducted without addition of S9mix and with addition of S9mix. Dimethylsulfoxide was used as a negative control. A positive control was 2-(2-furyl)-3-(5-nitro-2-furyl)acrylamide in case S9mix was not added, and 2-aminoanthracene in case S9mix was added.
as §3, with “Compound 8” for “each sample”, “3)” for “4)”, “Compound 8” for “a sample to be examined”, “Compound 8,” for “a sample to be examined,”

[5] = system: Salmonella typhimurium TA100; assay: Reverse mutation test (Ames test), TA100; type: cell-based; settings: maximum 5000 μg/plate
Protocol: as §1, §2, §3, §4, §5
as §3, with “Compound 8” for “each sample”, “3)” for “4)”, “Compound 8” for “a sample to be examined”, “Compound 8,” for “a sample to be examined,”

[6] = system: Salmonella typhimurium TA98; assay: Reverse mutation test (Ames test), TA98; type: cell-based; settings: maximum 5000 μg/plate
Protocol: as §1, §2, §3, §4, §5
as §3, with “Compound 8” for “each sample”, “3)” for “4)”, “Compound 8” for “a sample to be examined”, “Compound 8,” for “a sample to be examined,”

[7] = target: T1, intracerebral amyloid (aggregated Aβ1-42 injected into amygdaloid nucleus) (Homo sapiens, UniProt P05067); assay: Ex vivo autoradiogram using rats of amyloid injected model (aggregated Aβ1-42); design: species or system male Wistar rat; settings: rat, Aβ1-42 amyloid suspension in amygdaloid nucleus, brain removed 60 minutes after tail vein injection
T1 construct: Aβ1-42 (manufactured by Peptide Institute, Inc.) was dissolved in phosphate buffer (pH 7.4); purchased Peptide Institute, Inc
Protocol: As a control, 2.5 μL of a phosphate buffered physiological saline solution (pH 7.4) was injected into an amygdaloid nucleus on the other side of the rat. The rats were examined 1 day after the injection of the amyloid suspension and the phosphate buffered physiological saline solution (pH 7.4).
(§6) (4) Brain was removed 60 minutes after the injection to prepare a brain slice of 10 μm in thickness with a microtome (type: CM3050S, manufactured by LEICA). The brain slice was exposed to an imaging plate for 20 hours, and then image analysis was carried out by use of a Bio-imaging Analyzer (type: BAS-2500; manufactured by FUJIFILM Corporation).

[8] = Partition coefficient based on the octanol extraction method (logPoctanol); type: physicochemical; settings: octanol / 10 mmol/L phosphate buffer (pH 7.4), radioactivity count
Protocol: Using the obtained radioactivity count, logPoctanol was calculated in accordance with the equation (2).

[9] = Transferability into brain and clearance (Example II-11, II-12, Comparative Example II-1); type: in vivo, male Wistar rats; settings: brain, rats, intravenous injection
[10] = Transferability into brain and clearance (Example I-16, Comparative Example I-7); settings: brain, rats, intravenous injection
Protocol: Using Compound 6, a time course change of radioactive accumulation in brain of male Wistar rats (7-week old) was measured.
Also, radioactivity (hereinafter referred to as B in this Example) of 0.05 mL of a 1000-fold diluted solution of the injected solution was measured in the same manner as above. Using these measurement results, radioactive accumulation per unit weight of brain (% ID/g) at the respective time points was calculated in accordance with the following formula (5).

[11] = [^11C]-labeled, rats; cited from earlier work
[12] = target: intracerebral amyloid (aggregated Aβ1-40 injected into amygdaloid nucleus) (Homo sapiens, UniProt P05067); settings: rat, Aβ1-40 amyloid suspension in amygdaloid nucleus, brain removed 60 minutes after tail vein injection
Protocol: The following experiment was carried out in order to examine whether amyloid in brain can be imaged by the compound of the present invention.
The rats were examined 1 day after the injection of the amyloid suspension and the phosphate buffered physiological saline solution (pH 7.4).
as §6

T1 sequence (P05067 672-713): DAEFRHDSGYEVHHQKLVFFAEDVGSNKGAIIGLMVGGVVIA
Chain of intracerebral amyloid (aggregated Aβ1-40 injected into amygdaloid nucleus) (P05067 672-711): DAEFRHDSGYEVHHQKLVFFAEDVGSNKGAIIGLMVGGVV

CN(C)c1ccc(-c2cn3cc(I)ccc3n2)cc1 [IMPY, 6-iodo-2-[4′-(N,N-dimethylamino)phenyl]imidazo[1,2-a]pyridine]
Clearance from normal tissues [1]: rapid clearance from normal tissues | Reverse mutation test result [2]: positive

CN(C)c1ccc(/C=C/c2ccc(I)cc2)cc1 [m-I-SB, (E)-4-dimethylamino-4′-iodostilbene]
Clearance from normal tissues [3]: insufficient in clearance from normal tissues

Oc1ccc(-c2cn3cc(I)cnc3n2)cc1 [Compound 4, 2-(4′-hydroxyphenyl)-6-iodoimidazo[1,2-a]pyrimidine]
Judgment in the Ames test (mutagenicity) [4]: negative | Mutagenicity, With addition of S9mix, TA100 ([5]; 7 dosages (geometric ratio 4)): Negative | Mutagenicity, Without addition of S9mix, TA100 ([5]; 7 dosages (geometric ratio 4)): Negative | Mutagenicity, With addition of S9mix, TA98 ([6]; 7 dosages (geometric ratio 4)): Negative | Mutagenicity, Without addition of S9mix, TA98 ([6]; 7 dosages (geometric ratio 4)): Negative

Oc1ccc(-c2cn3cccc([123I])c3n2)cc1 [Compound 11, [^123I]-2-(4′-hydroxyphenyl)-8-iodoimidazo[1,2-a]pyridine]
Accumulation of radioactivity in the amygdaloid nucleus on the amyloid-injected side (autoradiogram of brain slice) [7]: marked accumulation of radioactivity | logPoctanol value [8]: 3.0 | Radioactive accumulation per unit weight, After 2 min. [9]: 0.65 % ID/g | Radioactive accumulation per unit weight, After 5 min. [9]: 0.43 % ID/g | Radioactive accumulation per unit weight, After 30 min. [9]: 0.09 % ID/g | Radioactive accumulation per unit weight, After 60 min. [9]: 0.03 % ID/g

CN(C)c1ccc(-c2nc3ccc(I)cc3s2)cc1 [TZDM, 6-iodo-2-[4′-(N,N-dimethylamino)phenyl]benzothiazole]
Clearance from normal tissues [3]: insufficient in clearance from normal tissues

CN(C)c1ccc(-c2cn3cc([123I])ccc3n2)cc1 [^123I-IMPY, reference compound]
Radioactive accumulation per unit weight, After 2 min. [10]: 1.02 % ID/g | Radioactive accumulation per unit weight, After 5 min. [10]: 0.99 % ID/g | Radioactive accumulation per unit weight, After 30 min. [10]: 0.20 % ID/g | Radioactive accumulation per unit weight, After 60 min. [10]: 0.08 % ID/g | Radioactive accumulation per unit weight, After 2 min. [9]: 1.19 % ID/g | Radioactive accumulation per unit weight, After 5 min. [9]: 0.97 % ID/g | Radioactive accumulation per unit weight, After 30 min. [9]: 0.23 % ID/g | Radioactive accumulation per unit weight, After 60 min. [9]: 0.09 % ID/g

CC(=C(C#N)C#N)c1ccc2cc(N(C)CCF)ccc2c1 [FDDNP, 2-(1-{6-[(2-fluoroethyl)(methyl)amino]-2-naphthyl}ethylidene)malononitrile]
Reverse mutation test result [2]: positive

Oc1ccc(-c2cn3cc(I)ncc3n2)cc1 [Compound 8, 2-(4′-hydroxyphenyl)-6-iodoimidazo[1,2-a]pyrazine]
Judgment in the Ames test (mutagenicity) [4]: negative | Mutagenicity, With addition of S9mix, TA100 ([5]; 7 dosages (geometric ratio 3)): Negative | Mutagenicity, Without addition of S9mix, TA100 ([5]; 7 dosages (geometric ratio 3)): Negative | Mutagenicity, With addition of S9mix, TA98 ([6]; 7 dosages (geometric ratio 3)): Negative | Mutagenicity, Without addition of S9mix, TA98 ([6]; 7 dosages (geometric ratio 3)): Negative

Oc1ccc(-c2cn3cc(I)ccc3n2)cc1 [Compound 2, 2-(4′-hydroxyphenyl)-6-iodoimidazo[1,2-a]pyridine]
Judgment in the Ames test (mutagenicity) [4]: negative | Mutagenicity, With addition of S9mix, TA100 ([5]; 7 dosages (geometric ratio 4)): Negative | Mutagenicity, Without addition of S9mix, TA100 ([5]; 7 dosages (geometric ratio 4)): Negative | Mutagenicity, With addition of S9mix, TA98 ([6]; 7 dosages (geometric ratio 4)): Negative | Mutagenicity, Without addition of S9mix, TA98 ([6]; 7 dosages (geometric ratio 4)): Negative

CN(C)c1ccc(-c2nc3ccc(I)cc3o2)cc1 [IBOX, 6-iodo-2-[4′-(N,N-dimethylamino)phenyl]benzoxazole]
Clearance from normal tissues [3]: insufficient in clearance from normal tissues

CNc1ccc(/C=C/c2ccc(O)cc2)cc1 [SB-13, (E)-4-methylamino-4′-hydroxystilbene]
Clearance from normal tissues [11]: it cannot be said that the clearance is sufficiently fast

CN(C)c1ccc(-c2cn3cc([125I])ccc3n2)cc1 [[^125I]-IMPY, reference compound]
logPoctanol value [8]: 2.1

Oc1ccc(-c2cn3cc([123I])ccc3n2)cc1 [Compound 6, [^123I]-2-(4′-hydroxyphenyl)-6-iodoimidazo[1,2-a]pyridine]
Radioactive accumulation per unit weight, After 2 min. [10]: 0.96 % ID/g | Radioactive accumulation per unit weight, After 5 min. [10]: 0.69 % ID/g | Radioactive accumulation per unit weight, After 30 min. [10]: 0.16 % ID/g | Radioactive accumulation per unit weight, After 60 min. [10]: 0.04 % ID/g | Accumulation of radioactivity on intracerebral amyloid (autoradiogram of brain slice) [12]: possesses a property of accumulating on intracerebral amyloid

Oc1ccc(-c2cn3cc([123I])cnc3n2)cc1 [Compound 9, [^123I]-2-(4′-hydroxyphenyl)-6-iodoimidazo[1,2-a]pyrimidine]
logPoctanol value [8]: 1.7

Oc1ccc(-c2cn3cc([123I])ncc3n2)cc1 [Compound 10, [^123I]-2-(4′-hydroxyphenyl)-6-iodoimidazo[1,2-a]pyrazine]
Accumulation of radioactivity in the amygdaloid nucleus on the amyloid-injected side (autoradiogram of brain slice) [7]: marked accumulation of radioactivity | logPoctanol value [8]: 2.3 | Radioactive accumulation per unit weight, After 2 min. [9]: 0.62 % ID/g | Radioactive accumulation per unit weight, After 5 min. [9]: 0.33 % ID/g | Radioactive accumulation per unit weight, After 30 min. [9]: 0.08 % ID/g | Radioactive accumulation per unit weight, After 60 min. [9]: 0.02 % ID/g

Oc1ccc(-c2cn3cc(Br)ccc3n2)cc1 [Compound 1, 6-bromo-2-(4′-hydroxyphenyl)imidazo[1,2-a]pyridine]
Judgment in the Ames test (mutagenicity) [4]: negative | Mutagenicity, With addition of S9mix, TA100 ([5]; 7 dosages (geometric ratio 4)): Negative | Mutagenicity, Without addition of S9mix, TA100 ([5]; 7 dosages (geometric ratio 4)): Negative | Mutagenicity, With addition of S9mix, TA98 ([6]; 7 dosages (geometric ratio 4)): Negative | Mutagenicity, Without addition of S9mix, TA98 ([6]; 7 dosages (geometric ratio 4)): Negative

Oc1ccc(-c2cn3cc([125I])ccc3n2)cc1 [Compound 5, [^125I]-2-(4′-hydroxyphenyl)-6-iodoimidazo[1,2-a]pyridine]
logPoctanol value [8]: 1.6
